The values below come from US11896601B2, “Composition for prevention or treatment of allergic disease including inotodiol compound as active ingredient” (CARBOEXPERT INC., priority 2018, dated 2024).

Assay [1] concerns CD4^+ T cells expressing DO11.00 TCR. Put plainly: Adoptive transfer of CFSE-stained DO11.10 TCR CD4+ T cells, ovalbumin-induced division (flow cytometry). The class given is in vivo, mouse. Conditions: BALB/C mice; oral once a day for four days; inotodiol 20 mg/kg, ethanol extract 320 mg/kg, imatinib 10 mg/kg; five days after ovalbumin injection; FIG. 4(B). The procedure: (§1) In order to examine the effect of an inotodiol compound or a chaga mushroom extract containing an inotodiol compound on CD4^+ T cell activity regulation, analysis of expression level of cytokine produced by Th2 CD4^+ T cell and adoptive transfer experiments using CD4^+ TCR transgenic T cells that express DO11.00 TCR, i.e., the ovalbumin-derived peptide specific T cell receptor (TCR), were performed.
Experiments to measure a degree of ovalbumin-derived peptide specific T cell immune response from an animal experiment were performed as follows. Cells were isolated from the lymph nodes of transgenic mice expressing DO11.10TCR. The isolated cells were fluorescence-stained with carboxyfluorescein succinimidyl ester (CFSE), and 2×10^6 cells were injected intravenously into BALB/C mice. Cells were injected intraperitoneally with ovalbumin (50 μg) and alum to induce division of CD4^+ T cells expressing DOII.00 TCR. Oral administration of 20 mg/kg of the inotodiol compound, 320 mg/kg of the chaga mushroom ethanol extract, 10 mg/kg of dexamethasone, 10 mg/kg of imatinib, or 20 mg/kg of the cholesterol was performed once a day for four days starting from one day after ovalbumin injection. After five days of ovalbumin injection, the cells were isolated from BALB/C lymph nodes, stained with anti-CD4 antibody and anti-DO11.10 antibody, and measured CFSF fluorescence intensity of the CD4^+ T cell expressing DOII.00 TCR using flow cytometry to determine the cell division degree. Then, the number of cells was measured. Here, the CFSF fluorescence intensity decreased as the cell division increases.
(Flow cytometry measures light scatter and fluorescence of single cells or particles in a stream.)

For assay [2], the system named is mast cell degranulation (MCPT-1). Put plainly: Passive systemic anaphylaxis: MCPT-1 in blood. It is filed as in vivo, mouse. Conditions: passive systemic anaphylaxis (anti-DNP-IgE, DNP-BSA i.v.); oral once a day for 3 days; inotodiol 20, ethanol extract 320, cholesterol 20, dexamethasone 10, imatinib 20 mg/kg; FIG. 5(B). The protocol: (§2) On the third day after oral administration, 3 μg of anti-dinitrophenol (DNP)-IgE was intravenously injected, and after 24 hours, mast cell degranulation was induced by intravenous injection of 80 μg of DNP-conjugated bovine serum albumin (BSA). The rectal temperature of mice induced mast cell degranulation was measured, and the amount of MCPT-1 in the blood was analyzed.

Assay [3] concerns food allergy-induced mouse model. Put plainly: Anaphylaxis symptom score in ovalbumin food allergy mouse model. It is filed as in vivo. To be noted: ovalbumin food allergy BALB/C mice; oral daily; inotodiol, dexamethasone, cholesterol 20 mg/kg; extract and fractions 320 mg/kg; score 0-4 (Table 3); FIG. 1(B). The procedure: (§3) To prepare allergy mouse models, 5-week-old male BALB/C mice were used. Food allergy models were prepared using ovalbumin of chicken as an allergy-inducing material (allergen).
(§4) For immunization of the mice, 20 μg of ovalbumin was mixed with 2 mg of alum, and the mixture was intraperitoneally injected to the mice two times every two weeks. Food allergy induction was induced by performing the second immunization injection and two weeks thereafter, 50 mg of ovalbumin was orally administered thereto five times every three days to cause an allergic response. […] Here, as a positive control, a mice group was used to which dexamethasone was administered every day. 50 mg of ovalbumin alone or the chaga mushroom extract, the fraction, or the inotodiol compound was lastly administered thereto, followed by observation on symptoms caused by allergy one hour thereafter.

Assay [4] has the same test system. In words: Stool observation (diarrhea score) in ovalbumin food allergy mouse model. The class given is in vivo. To be noted: ovalbumin food allergy BALB/C mice; oral daily; inotodiol, dexamethasone, cholesterol 20 mg/kg; extract and fractions 320 mg/kg; score 0-4 (Table 4); FIG. 1(C). The procedure: as §3, §4
Assay [5] relates to eosinophils in small intestine. Put plainly: Eosinophil infiltration in small intestine (H&E staining), food allergy mouse model. It is filed as in vivo. Conditions: ovalbumin food allergy BALB/C mice; H&E stained small intestine sections; FIG. 2(A). The protocol:
as §3, §4
The mice of each experimental group in Experimental Example 1 were anesthetized and cut the abdomen. Then, the small intestine was removed, fixed with formalin, treated with paraffin, permeated with paraffin, and microsectioned using microtome, thereby obtaining tissue sections. The obtained small intestine sections were stained with hematoxylin and eosin (H&E) to observe eosinophil cells.

Assay [6] relates to mast cells in small intestine. In words: Number of mast cells in small intestine (toluidine staining), food allergy mouse model. The class given is in vivo. To be noted: ovalbumin food allergy BALB/C mice; toluidine stained small intestine sections; FIG. 2(B). The protocol: as §3, §4
In assay [7] the test system is egg white protein-specific IgE. In words: Serum IgE concentration by ELISA, food allergy mouse model. The class given is in vivo. Conditions: ovalbumin food allergy BALB/C mice, serum one day after last administration, FIG. 3(A). The protocol: as §4
In assay [8] the test system is mast cell protease-1 (MCPT-1). In words: Serum MCPT-1 concentration by ELISA, food allergy mouse model. It is filed as in vivo. To be noted: ovalbumin food allergy BALB/C mice, serum one day after last administration, FIG. 3(B). The procedure:
as §4
(In an ELISA, binding on a coated surface is turned into a signal by an enzyme label.)

In assay [9] the test system is cytokine produced by Th2 CD4^+ T cells (IL-5, IL-13, IFN-γ). Put plainly: Cytokine production by mesenteric lymph node cells of treated food allergy mice (ELISA). The class given is in vivo, mouse. Conditions: mLN cells of treated food allergy mice cultured three days with 100 μg/mL ovalbumin (OVA); FIG. 4(A). The procedure:
as §1
For the expression of cytokine, a sample was treated in the same manner as in Experimental Example 1, and the cells were isolated from the mesenteric lymph node (mLN) of mice of each group after one day. At this time, a group treated with 10 mg/kg of dexamethasone, a group treated with 20 mg/kg of imatinib (Gleevec), which is used as a mast cell […] therapeutic agent, and a group treated with 20 mg/kg of cholesterol that is similar in structure to the inotodiol compound were added. The isolated cells were dispensed into wells of a 96-well plate at a rate of 1×10^6 cells/well. RPMI complete medium (containing 10% fetal bovine serum (FBS), penicillin, streptomycin, and glutamine) containing ovalbumin or RPMI complete medium containing 100 μg/mL of ovalbumin was inoculated and culture for three days under a condition of 37° C. and 5% CO2. […]

In the next assay the test system is mast cell degranulation. Put plainly: Passive systemic anaphylaxis: rectal temperature. It is filed as in vivo, mouse. Conditions: passive systemic anaphylaxis (anti-DNP-IgE, DNP-BSA i.v.); oral once a day for 3 days; inotodiol 20 mg/kg, ethanol extract 320 mg/kg; FIG. 5(A). The protocol:
as §2

Turning to `Cc1ccc(NC(=O)c2ccc(CN3CCN(C)CC3)cc2)cc1Nc1nccc(-c2cccnc2)n1` [Imat., imatinib], in assay [1], the “CFSE fluorescence intensity of CD4+ T cell expressing DO11.00 TCR (cell division degree)” value was “no difference in the CFSE fluorescence intensity and the number of cells, as compared with the unimmune group”; the “number of CD4+ T cells expressing DO11.00 TCR” value is “no difference in the CFSE fluorescence intensity and the number of cells, as compared with the unimmune group”. In addition, the “concentration of MCPT-1 in the blood after induced mast cell degranulation” value (shortened to “concentration of MCPT-1 in the blood”) in assay [2] was “level of increase in concentration of MCPT-1 was significantly decreased”.

Regarding `CC(C)=CC[C@@H](O)[C@@H](C)[C@H]1CC[C@@]2(C)C3=C(CC[C@]12C)[C@@]1(C)CC[C@H](O)C(C)(C)[C@@H]1CC3` [Inotodiol, inotodiol], in assay [3], the anaphylaxis score entry is on record as “lower anaphylaxis score than the food allergy-induced group”. Moreover, the “diarrhea symptom score (stool symptom score)” value in [4] was “lower than that of the food allergy-induced group”. Further, the “infiltration of eosinophils in the small intestine (number of stained eosinophil cells)” value in [5] was “decreased infiltration of eosinophils”. In addition, the “number of mast cells in the small intestine” value in [6] was “decreased number of mast cells”. In addition, in [7], the “concentration of egg white protein-specific IgE in serum” value was “no substantial change in the concentration of IgE”. Besides, the “concentration of MCPT-1 in serum” value in assay [8] was “decreased significantly”. In addition, the “amount of IL-5, IL-13, and IFN-γ (cytokine expression by Th2 CD4+ T cells)” value in assay [9] was “not substantially different from the expression amount of IL-5, IL-13, and IFN-γ”. Further, in assay [1], the “number of CD4+ T cells expressing DO11.00 TCR” value is “significantly increased number of CD4^+T cells”. Moreover, in the assay on mast cell degranulation, the “rectal temperature after induced mast cell degranulation” value is “did not decrease the rectal temperature”. Besides, the “concentration of MCPT-1 in the blood” value in assay [2] was “level of increase in concentration of MCPT-1 was significantly decreased”.

With `CC(C)CCC[C@@H](C)[C@H]1CC[C@H]2[C@@H]3CC=C4C[C@@H](O)CC[C@]4(C)[C@H]3CC[C@]12C` [cholesterol, reference compound], in assay [5], the “infiltration of eosinophils in the small intestine (number of stained eosinophil cells)” value is “little decrease in the number of eosinophils and mast cells”. Further, the “number of mast cells in the small intestine” value in assay [6] is “little decrease in the number of eosinophils and mast cells”. Besides, in [2], the “concentration of MCPT-1 in the blood” value is given as “MCPT-1 did not decrease”.
